# Source: ChEMBL document CHEMBL1201862, “PubChem BioAssay data set” (2004)
# Calls of active or inactive are those of the source.
# Assays:
# Bcl-2-related protein A1 = biological target: T1, Bcl-2-related protein A1 (Mus musculus, UniProt Q07440); assay type: functional;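 also: confirmatory dose–response counterscreen on Bfl-1, used to check hits from a UBC13 polyubiquitin inhibitor campaign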
# T1 sequence (Q07440 whole entry): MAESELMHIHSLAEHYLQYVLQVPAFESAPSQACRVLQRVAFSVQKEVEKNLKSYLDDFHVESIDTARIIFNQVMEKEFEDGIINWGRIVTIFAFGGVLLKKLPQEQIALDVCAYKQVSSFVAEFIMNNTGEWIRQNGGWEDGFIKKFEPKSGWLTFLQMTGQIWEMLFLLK
# [1] = biological target: T2, Ubiquitin-conjugating enzyme E2 N (Homo sapiens, UniProt P61088); assay type: functional
# T2 sequence (P61088 whole entry): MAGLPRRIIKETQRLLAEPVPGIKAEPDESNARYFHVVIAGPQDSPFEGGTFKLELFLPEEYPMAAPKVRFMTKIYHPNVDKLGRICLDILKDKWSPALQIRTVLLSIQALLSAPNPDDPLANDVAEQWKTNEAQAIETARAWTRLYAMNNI
# [2] = biological target: T2, Ubiquitin-conjugating enzyme E2 N; assay type: functional; remark: listed apart in the source
# Vero [3] = test: cells; assay type: functional, cell-based; conditions: Chlorocebus sabaeus
# Vero [4] = test: cells; assay type: functional; conditions: Chlorocebus sabaeus
# [5] = viability of uninfected HEp-2 cells – cell-based, HTS, cytotoxicity control for RSV inhibitor project, dose response (AID 2410); assay type: functional; conditions: human respiratory syncytial virus
# [6] = biological target: T3, Replicative DNA helicase DnaB (Mycobacterium tuberculosis, UniProt P9WMR3); test: DnaB intein splicing inhibitors, dose response, biochemical, cell-free fluorescence (AID 449749); assay type: functional
# T3 sequence (P9WMR3 whole entry): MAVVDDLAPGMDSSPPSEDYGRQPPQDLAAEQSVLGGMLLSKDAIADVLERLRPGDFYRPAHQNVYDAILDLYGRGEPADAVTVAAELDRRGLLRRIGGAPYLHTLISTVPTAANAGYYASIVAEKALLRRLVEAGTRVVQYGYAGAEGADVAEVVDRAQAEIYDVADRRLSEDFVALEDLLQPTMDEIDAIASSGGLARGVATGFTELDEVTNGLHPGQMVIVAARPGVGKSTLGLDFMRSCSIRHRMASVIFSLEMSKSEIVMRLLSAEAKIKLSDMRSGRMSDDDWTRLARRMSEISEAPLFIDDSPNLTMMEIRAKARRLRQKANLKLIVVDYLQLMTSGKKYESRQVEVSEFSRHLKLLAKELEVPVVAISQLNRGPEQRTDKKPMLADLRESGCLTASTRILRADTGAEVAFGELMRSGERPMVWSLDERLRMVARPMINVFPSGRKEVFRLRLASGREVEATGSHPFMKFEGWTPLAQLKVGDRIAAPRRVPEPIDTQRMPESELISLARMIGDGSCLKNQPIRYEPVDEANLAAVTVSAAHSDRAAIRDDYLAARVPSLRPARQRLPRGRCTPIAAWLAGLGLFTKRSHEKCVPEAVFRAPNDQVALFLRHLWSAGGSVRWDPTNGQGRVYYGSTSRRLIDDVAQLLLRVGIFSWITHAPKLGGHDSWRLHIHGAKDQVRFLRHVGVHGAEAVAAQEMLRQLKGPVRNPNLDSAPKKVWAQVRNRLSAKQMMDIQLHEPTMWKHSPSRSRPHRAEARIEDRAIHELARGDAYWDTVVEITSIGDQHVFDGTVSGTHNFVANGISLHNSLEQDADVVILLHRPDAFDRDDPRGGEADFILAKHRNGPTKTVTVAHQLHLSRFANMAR
# Paired box protein Pax-8 = Paired box protein Pax-8 (Homo sapiens, UniProt Q06710); test: PAX8 transcriptional activity inhibition in RMG-I – RMG-I cells, luciferase, cherry-pick, dose response (AID 687027); assay type: functional, cell-based;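 also: luciferase reporter driven by Pax8 target thyroperoxidase promoter measured by SteadyGlo luminescence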
# [7] = biological target: T4, Microphthalmia-associated transcription factor (Homo sapiens, UniProt O75030); test: reducers of TRPM1 reporter luminescence, concentration series – cell-based, SK-MEL-5, cherry-picked, set 3, MITF inhibitor project, dose response (AID 493073); assay type: functional;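 also: SK-MEL-5 melanoma cells with luciferase driven by the MITF target TRPM1 promoter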
# T4 sequence (O75030 whole entry): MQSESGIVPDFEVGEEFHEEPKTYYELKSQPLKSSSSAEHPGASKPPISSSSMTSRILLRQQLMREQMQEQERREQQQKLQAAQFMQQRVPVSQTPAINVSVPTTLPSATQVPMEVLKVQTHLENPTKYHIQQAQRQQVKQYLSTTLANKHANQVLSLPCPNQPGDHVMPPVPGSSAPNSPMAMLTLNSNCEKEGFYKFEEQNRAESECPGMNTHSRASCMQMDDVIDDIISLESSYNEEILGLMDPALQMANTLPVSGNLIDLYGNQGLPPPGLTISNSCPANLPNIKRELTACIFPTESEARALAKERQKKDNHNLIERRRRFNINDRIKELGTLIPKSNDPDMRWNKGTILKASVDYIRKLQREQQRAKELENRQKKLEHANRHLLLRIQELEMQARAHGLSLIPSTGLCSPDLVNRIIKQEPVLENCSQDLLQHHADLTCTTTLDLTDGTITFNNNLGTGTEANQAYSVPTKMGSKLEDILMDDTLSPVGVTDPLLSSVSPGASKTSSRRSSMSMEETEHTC
# [8] = Luminescence Cell-Based Dose Retest to Confirm Inhibitors of Cancer Stem Cells. [Related pubchem assays (depositor defined):AID2717, AID2721]; assay type: functional; conditions: Homo sapiens
# Protein RecA = biological target: T5, Protein RecA (Mycobacterium tuberculosis, UniProt P9WHJ3); test: Fluorescence Cell-Free Homogeneous Dose Retest to Identify Inhibitors of RecA-Intein Splicing Activity. [Related pubchem assays (depositor defined):AID2097, AID2223, AID489010, AID492950]; assay type: functional
# T5 sequence (P9WHJ3 whole entry): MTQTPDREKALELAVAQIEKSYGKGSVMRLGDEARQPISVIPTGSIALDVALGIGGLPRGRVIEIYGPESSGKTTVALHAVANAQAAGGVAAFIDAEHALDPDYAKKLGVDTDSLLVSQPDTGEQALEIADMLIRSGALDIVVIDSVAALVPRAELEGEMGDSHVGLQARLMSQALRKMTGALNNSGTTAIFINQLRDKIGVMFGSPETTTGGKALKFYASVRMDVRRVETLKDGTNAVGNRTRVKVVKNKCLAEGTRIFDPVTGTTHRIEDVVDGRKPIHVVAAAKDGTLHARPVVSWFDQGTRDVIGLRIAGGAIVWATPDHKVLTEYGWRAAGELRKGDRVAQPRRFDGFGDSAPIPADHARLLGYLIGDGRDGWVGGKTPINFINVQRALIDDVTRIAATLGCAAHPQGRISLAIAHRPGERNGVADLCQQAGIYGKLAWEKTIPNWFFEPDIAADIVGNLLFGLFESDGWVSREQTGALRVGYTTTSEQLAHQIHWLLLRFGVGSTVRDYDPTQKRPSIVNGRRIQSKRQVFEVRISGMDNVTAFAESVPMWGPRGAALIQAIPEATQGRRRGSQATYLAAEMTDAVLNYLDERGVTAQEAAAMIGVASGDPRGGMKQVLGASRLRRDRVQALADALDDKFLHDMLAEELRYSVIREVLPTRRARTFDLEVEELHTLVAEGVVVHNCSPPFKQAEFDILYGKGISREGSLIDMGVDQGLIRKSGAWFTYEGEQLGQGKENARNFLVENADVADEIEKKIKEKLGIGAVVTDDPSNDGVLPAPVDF
# [9] = Trypanosoma cruzi growth suppression in host cells – NIH3T3 host cells, beta-gal luminescence, confirmation (AID 2044); assay type: functional, cell-based;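 also: intracellular parasites grown in NIH/3T3 mouse fibroblasts as host cells; luminescent beta-galactosidase reporter signal from transgenic T. cruzi replicating inside host cells; inhibitors lower the luminescence signal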
# BJ [10] = test: cells; assay type: functional, cell-based; conditions: Homo sapiens
# BJ [11] = test: BJ-TERT fibroblast viability loss – cell-based, RAS-independent, luminescence, dose response (AID 1933); assay type: functional; conditions: Homo sapiens
# BJ [12] = test: BJ-TERT-LT-ST fibroblast viability loss – cell-based, RAS-independent, luminescence, dose response (AID 1935); assay type: functional; conditions: Homo sapiens;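 also: BJ fibroblasts immortalized with TERT plus LT and ST oncogenes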
# [13] = NIH3T3 cell viability loss – ATP luminescence, mouse fibroblasts, counter-screen, dose response (AID 2010); assay type: functional, cell-based;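 also: cells exposed to compound for about 90 hours before reading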
# [14] = DRD fibroblast viability loss – cell-based, non-viral oncogenic, luminescence, dose response (AID 1934); assay type: functional; conditions: Homo sapiens
# H9c2 = test: cells; assay type: functional, cell-based; conditions: Rattus norvegicus, H9c2, Myocardium;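 also: confirmatory concentration-response retest of ultra-high-throughput screening hits for modulation of myocardial damage; cell death induced by hydrogen peroxide oxidative stress; compound pretreatment for 60 min then peroxide exposure for 2 h; potency is for protecting the cells against peroxide damage rather than for killing them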
# [15] = biological target: T6, Heat shock factor protein 1 (Mus musculus, UniProt P38532); test: enhancement of HSF1-driven luciferase signal – cell-based, NIH3T3, luminescence, dose retest, confirmation (AID 435004); assay type: functional;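 also: stress induced by proteasome inhibitor MG132 added 30 min after compound; luciferase reporter driven by HSF1 response element in NIH3T3 cells; actives raise luminescence as potentiators of the MG132 stress response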
# T6 sequence (P38532 whole entry): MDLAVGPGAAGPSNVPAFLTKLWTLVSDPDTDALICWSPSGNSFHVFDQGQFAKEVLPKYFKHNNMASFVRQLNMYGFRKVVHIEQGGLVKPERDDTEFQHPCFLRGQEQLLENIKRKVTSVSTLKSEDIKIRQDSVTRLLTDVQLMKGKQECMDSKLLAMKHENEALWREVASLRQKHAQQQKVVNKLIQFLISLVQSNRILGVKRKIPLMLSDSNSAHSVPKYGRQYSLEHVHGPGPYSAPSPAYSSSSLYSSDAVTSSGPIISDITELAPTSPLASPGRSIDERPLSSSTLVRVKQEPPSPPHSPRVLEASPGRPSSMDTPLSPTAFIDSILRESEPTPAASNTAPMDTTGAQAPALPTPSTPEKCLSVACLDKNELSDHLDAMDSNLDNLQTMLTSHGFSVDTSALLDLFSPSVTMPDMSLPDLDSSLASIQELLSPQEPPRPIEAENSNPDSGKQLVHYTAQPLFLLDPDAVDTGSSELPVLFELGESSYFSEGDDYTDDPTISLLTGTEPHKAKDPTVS
# [16] = HEK-293T viability loss after treatment – luminescence, T-cell screen hits, cytotoxicity control for TCR NF-kB inhibitor project, dose response (AID 489026); assay type: functional, cell-based;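 also: cells exposed to compound about 14 hours before the viability readout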
# BJ [17] = test: growth inhibition of engineered Ras-driven BJ cells – cell-based, alamar blue fluorescence, cherrypicked samples, dose response (AID 2631); assay type: functional; conditions: Homo sapiens;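 also: confirmatory dose-response assay in RAS-dependent BJ fibroblasts engineered with TERT, LT and ST, with cytotoxicity read by fluorescence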
# Chain of Paired box protein Pax-8 (Q06710 whole entry): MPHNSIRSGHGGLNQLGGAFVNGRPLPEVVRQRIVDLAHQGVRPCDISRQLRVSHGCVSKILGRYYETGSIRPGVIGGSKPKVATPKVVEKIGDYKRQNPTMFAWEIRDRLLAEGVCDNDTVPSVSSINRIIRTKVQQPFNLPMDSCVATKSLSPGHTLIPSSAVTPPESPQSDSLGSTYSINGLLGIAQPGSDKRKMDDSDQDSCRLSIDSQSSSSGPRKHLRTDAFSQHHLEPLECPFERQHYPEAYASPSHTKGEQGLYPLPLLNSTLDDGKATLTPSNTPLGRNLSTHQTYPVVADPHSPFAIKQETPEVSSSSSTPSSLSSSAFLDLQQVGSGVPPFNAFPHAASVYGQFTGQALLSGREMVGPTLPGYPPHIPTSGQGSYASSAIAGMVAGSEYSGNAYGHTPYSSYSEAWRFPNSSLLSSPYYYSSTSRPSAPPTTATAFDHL
smiles,measurement,setting,value
CN(CCNC(=O)C1CCN(c2ncnc3c2nc2n3CCCCC2)CC1)Cc1ccccc1,IC50,Bcl-2-related protein A1,> 20 µM (inactive)
same,IC50,[1],2.98 µM (active)
same,IC50,[2],3.44 µM (active)
Cc1cccc(-n2c(C)cc(/C=N\NC(=O)c3cccs3)c2C)c1,IC50,Vero [3],14.7 µM (active)
same,CC50,Vero [4],> 25 µM (active)
same,CC50,[5],23.4 µM (active)
O=C(Nc1ccccc1)NN(C(=O)CCl)c1ccccc1,AC50,[6],13.7 µM (active)
same,AC50,Paired box protein Pax-8,4.57 µM (active)
same,AC50,[7],8.5 µM (active)
same,AC50,[8],3.11 µM (active)
same,EC50,Protein RecA,0.861 µM (active)
COc1ccc(C2CC(c3cccs3)=NN2C(=O)CCl)cc1OC (stereo not given),EC50,[9],2.21 µM (active)
same,AC50,[6],8.43 µM (active)
same,EC50,BJ [10],6.92 µM (active)
same,EC50,BJ [11],0.834 µM (active)
same,EC50,BJ [12],6.05 µM (inconclusive)
same,EC50,[13],2.64 µM (active)
same,EC50,[14],5.26 µM (inconclusive)
same,IC50,Vero [3],> 25 µM (active)
same,CC50,Vero [4],3.51 µM (active)
same,EC50,Protein RecA,1.41 µM (active)
O=C(COC(=O)c1ccc(F)c([N+](=O)[O-])c1)NC(=O)NCc1ccccc1,AC50,[7],13.6 µM (active)
NNC(=O)c1cc2ccccc2cc1O,AC50,[7],24 µM (active)
same,IC50,H9c2,> 79 µM (inactive)
CCCOc1ccc(C(=O)Nn2c(C)nc3ccccc3c2=O)cc1,IC50,Bcl-2-related protein A1,> 20 µM (inactive)
same,IC50,[1],1.32 µM (active)
same,IC50,[2],1.54 µM (active)
COc1ccccc1NC(=O)CSc1nnc(-c2ccoc2C)n1CCc1ccccc1,IC50,Bcl-2-related protein A1,> 20 µM (inactive)
same,IC50,[1],8.82 µM (active)
same,IC50,[2],9.91 µM (active)
CC(C)N=C(S)N=Nc1c(O)[nH]c2ccc(C(C)C)cc12,EC50,[9],2.06 µM (active)
same,IC50,Bcl-2-related protein A1,> 20 µM (inactive)
same,EC50,[13],11 µM (active)
same,IC50,[1],3.56 µM (active)
same,IC50,[2],19.2 µM (active)
Cc1cccc(NC(=S)N=Nc2c(O)[nH]c3ccccc23)c1,EC50,[9],1.53 µM (active)
same,IC50,Bcl-2-related protein A1,> 20 µM (inactive)
same,EC50,[13],4.49 µM (active)
same,IC50,[1],0.594 µM (active)
same,IC50,[2],15 µM (active)
same,EC50,[15],8.45 µM (active)
CCOC(=O)c1c(NC(=O)COc2ccccc2C#N)sc2c1CC(C)(C)NC2(C)C,IC50,Bcl-2-related protein A1,> 20 µM (inactive)
same,IC50,[1],4.91 µM (active)
same,IC50,[2],5.94 µM (active)
O=[N+]([O-])c1cccc(/C(O)=C(/C([S-])=Nc2cccc3ccccc23)[n+]2ccccc2)c1,IC50,Vero [3],> 25 µM (active)
C[C@]12CC[C@H](O)C[C@H]1CC[C@@H]1[C@@H]2C[C@@H](O)[C@]2(C)[C@@H](C3=CC(=O)OC3)CC[C@]12O [DIGOXIGENIN],AC50,Paired box protein Pax-8,2.35 µM (active)
same,IC50,[16],> 80 µM (inactive)
same,AC50,[8],1.16 µM (active)
same,IC50,Vero [3],< 0.05 µM (active)
same,CC50,Vero [4],2.1 µM (active)
COc1cc(NC(=O)c2cccs2)c(OC)cc1NC(=O)CCC(=O)Nc1ccc2ncccc2c1,EC50,BJ [17],4.28 µM (inconclusive)
same,EC50,BJ [10],8.14 µM (active)
same,EC50,BJ [11],> 150 µM (not active)
same,EC50,BJ [12],> 150 µM (not active)
same,EC50,[14],> 150 µM (not active)
